{"source": "patent US8057800B2", "about": "“Immunointeractive molecules and uses thereof” (Circassia Limited, priority 2004, dated 2011)", "molecules": {"B1": {"name": "Ara h 2: major peanut allergen, a glycoprotein of the conglutin seed storage family (protein)", "chain": "LTILVALALFLLAAHASARQQWELQGDRRCQSQLERANLRPCEQHLMQKIQRDEDSYERDPYSPSQDPYSPSPYDRRGAGSSQHQERCCNELNEFENNQRCMCEALQQIMENQSDRLQGRQQEQQFKRELRNLPQQCGLRAPQRCDLDVESGGRDRY", "modifications": "Peanut Ara h 2", "notes": "major peanut allergen, a glycoprotein of the conglutin seed storage family"}}, "key": {"[1]": {"test_system": "peanut specific TCL generated using CPE and rAra h 2", "assay": "rAra h 2 pulsed peanut specific TCL proliferation assay (3H-thymidine)", "type": "cell-based, human", "method": "(§1) FIG. 5 is a graphical representation of peanut allergic donor peanut specific Ara h 2 pulsed TCL proliferative responses Ara h 2 peptides, Ara h 2 and crude peanut extract. Peanut specific TCL (5×10^4 cells/ml) from individuals with peanut allergy were generated using CPE and rAra h 2, then stimulated with Ara h 2 peptides at a concentration of 10 pg/ml in the presence of autologous irradiated PBMC as APC (5×10^4 cells/ml) in 3 day cultures.\n(§2) Freshly harvested or frozen stored PBMC were cultured in 24-well plates (Greiner Biotechnik, Germany) at 2.5×10^6 cells per well (2 ml volume) in complete medium with antigen at an optimised concentration for 7 days at 37° C. in a 5% CO2 humidified incubator. In the case of frozen PBMC the cells were first washed once in wash medium, 1 in 10 dilution of PBMC to medium, and pelleted at 329×g for 10 minutes to remove DMSO. At day 7 cells were washed once and resuspended at 1 to 1.5×10^6/ml and added together with 1×10^6/ml washed irradiated (3000 rads; Gammacell 1000 Elite, Nordion International, Inc.) autologous PBMC (from liquid nitrogen stocks) and antigen into fresh 24-well plates. At day 2 following restimulation, 25 U/ml of recombinant human interleukin-2 (rIL-2) was added and at day 4, 1 ml of culture medium was removed and replaced with fresh medium and 25 U/ml rIL-2. For some experiments due to low cell numbers at 2 weeks, 3 week TCLs were generated by restimulation with antigen and rIL-2 as above for a further week. In all experiments T cells were rested for 6 to 7 days after the last addition of antigen and APC.\n5.0×10^4/well TCL cells were cultured in triplicate in 96-well U bottom plates (Linbro ICN Biomedicals, USA) with antigen or medium alone and rIL-2 as negative and positive controls respectively, in the presence of autologous irradiated (3000 rads) PBMC (5.0×10^4/well). […] In the last 16 hours of culture, wells were pulsed with ^3H-thymidine (1 μCi/well), then harvested onto printed glass fibre filters with a 96-well automatic cell harvester. ^3H-thymidine incorporation was measured by liquid scintillation spectroscopy. […]"}, "[2]": {"test_system": "peanut specific TCL generated using CPE", "assay": "CPE driven peanut specific TCL proliferation assay (3H-thymidine)", "type": "cell-based, human", "settings": "for responders with a proliferative response to the peptide / proliferative response: CPE driven TCL; for responders with a proliferative response to the peptide: 8 responders; for proliferative response: peptide 10 μg/ml, stimulation index ≧2.5; for subjects responding to the peptide who also had a proliferative response to Ara h 2: subjects with a response to Ara h 2 (19-38) and Ara h 2 (28-47)", "method": "as §1, with “FIG. 4” for “FIG. 5”, “specific” for “specific Ara h 2 pulsed”, “responses to” for “responses”, “allergy” for “allergy were”, “CPE were” for “CPE and rAra h 2, then”, “10 μg/ml” for “10 pg/ml”\nas §2\n5.0×10^4/well TCL cells were cultured in triplicate in 96-well U bottom plates (Linbro ICN Biomedicals, USA) with antigen or medium alone and rIL-2 as negative and positive controls respectively, in the presence of autologous irradiated (3000 rads) PBMC (5.0×10^4/well). Cultures were incubated for 3 days. In the last 16 hours of culture, wells were pulsed with ^3H-thymidine (1 μCi/well), then harvested onto printed glass fibre filters with a 96-well automatic cell harvester. ^3H-thymidine incorporation was measured by liquid scintillation spectroscopy.\nTo determine the T cell epitopes of Ara h 2, oligoclonal CPE-specific TCL were generated from PBMC of 21 peanut-allergic donors and 5 non-peanut allergic donors, and stimulated with a nested set of synthetic peptides spanning the entire Ara h 2 sequence (FIG. 1). A peptide concentration of 10 μg/ml was determined to be the optimal stimulating concentration within proliferation assays. Optimisation included assays at both 10 μg/ml and 30 μg/ml. […] In this setting, and because of the limited availability of donor cells and the cost of commercially prepared peptides, the lower concentration was used.\nSeveral approaches to the production of TCL were used, including stimulation of cells with two and three pulses of CPE separated by 7 days each, two pulses of CPE with a third pulse of rAra h 2, again separated by 7 days each, and three stimulations with rAra h 2. Responses by TCL receiving two CPE stimulations were in general lower than those receiving three stimulations, such that it was felt the sensitivity of the assay may be compromised. […] This lead to the use of TCL stimulated with 3 pulses of CPE, each separated by 7 days for all subjects tested."}, "[3]": {"test_system": "peanut specific TCL generated using CPE", "assay": "Cytokine ELISA (IL-5, IFN-γ) of CPE driven TCL supernatants", "type": "cell-based, human", "settings": "for IL-5 production: 48 hours", "method": "FIG. 7 is a graphical representation of peanut allergic donor peanut specific Ara h 2 pulsed TCL cytokine responses to Ara h 2 peptides, Ara h 2 and crude peanut extract. Peanut specific TCLs (5×10^4/ml) from individuals with peanut allergy were generated using CPE, then stimulated with Ara h 2 peptides at a concentration of 10 ug/ml in the presence of autologous irradiated PBMC as APC (5×10^4/ml) in 3 day cultures. Cytokine supernatants were collected after 48 hours culture and assayed by specific ELISA. […] Peptides associated with a significant proliferative response are shaded grey.\nSupernatants (70-75 μl/well of triplicate cultures) were harvested and pooled from T cell proliferation assay cultures at 48 hours (IL-5, IFN-γ) and frozen at −80° C. Harvested supernatants were replaced with warm (37° C.) complete medium and cells subsequently pulsed and harvested as described previously.\nIL-5 and IFN-γ levels in culture supernatants were measured by sandwich ELISA. White Costar (Corning, USA) ELISA plates were coated with capture mAb (IL-5 and IFN-γ, 2 μg/ml; 30 μl/well) diluted in binding buffer overnight at 4° C. Plates were then washed three times in PBS/0.05% Tween (wash buffer) and wells blocked with 100 μl/well of 1% BSA/PBS (blocking buffer) for 1 hour at room temperature. Following three washes in wash buffer, 30 μl/well of serial dilutions of recombinant human IL-5 or IFN-γ (5000-0.15 pg/ml) in blocking buffer-0.05% Tween or culture supernatants were added and incubated overnight at 4° C. Following four washes in wash buffer, plates were incubated with biotinylated detection mAb (IL-5, 1 μg/ml; IFN-γ, 0.5 μg/ml; 50 μl/well) diluted in blocking buffer for 1 hour at room temperature. Plates were then washed 6 times in wash buffer and incubated with a 1 in 2000 dilution of streptavidin-peroxidase (50 μl/well) in blocking buffer for 45 minutes at room temperature. Following 8 washes in wash buffer, 100 μl/well of freshly prepared chemiluminescent substrate (Perkin-Elmer, USA) was used and plates read in a Lumicount microplate glow luminometer (Packard Instrument Company, USA), 0.5 seconds/well, automatic sensitivity setting. Standard curve construction and determination of unknown cytokine levels was performed using Packard Instruments software. IL-5 and IFN-γ ELISA sensitivities were 2 pg/ml and 4 pg/ml, respectively.\nTo identify the phenotype of T cells associated with a peptide proliferative response, supernatants were collected from TCL cultures 48 hours after stimulation with peptides and assayed for the presence of IL-5 and IFN-γ. For each donor, peptides associated with a proliferative response and two peptides not associated with a proliferative response were tested. […] In general, cytokine responses were at the lower limits of detection. […]"}, "specific IgE": {"test_system": "specific IgE", "settings": "cited from earlier work"}, "serum IgE": {"test_system": "serum IgE", "assay": "Western blot of CPE for serum IgE reactivity to Ara h 2", "type": "binding, human", "settings": "western blotting of CPE", "from_the_text": "Following resolution of CPE on a 14% polyacrylamide gel, proteins were transferred to nitrocellulose and probed with sera from the study population, and non-peanut allergic controls. IgE was detected using HRP conjugated mouse anti-human IgE and enhanced chemiluminescence.\nSDS-PAGE gels were assembled into stacks in transfer buffer as follows: blotting paper, nitrocellulose membrane, gel and blotting paper. Sample proteins and pre-stained molecular weight markers were electrophoretically transferred from SDS-PAGE gels to nitrocellulose at 30 volts for 3 hours in an Xcell II blot module (Novex, USA). Following transfer, the nitrocellulose membrane was stained with Ponceau S to ensure adequate protein transfer, then cut into strips and blocked by incubation with 10% milk powder-PBS for 1 hour at room temperature. The blocked nitrocellulose membrane was then washed in PBS and incubated with sample sera diluted 1 in 5 with 1% milk powder-PBS-Tween for all proteins except for Ara h 1, whereupon a 1 in 10 serum dilution was used. Incubation took place overnight, following which the blot was washed 3 times in PBS-Tween, 5 minutes/wash. […] The nitrocellulose was then photographed and analysed using Labworks image acquisition software (UVP Laboratory Products, UK). […]"}}, "data": [{"molecule": "PYDRRGAGSSQHQERCCNEL (Peanut Ara h 2) [Ara h 2 (73-92), Ara h 2 20-mer peptide, residues 73-92]", "values": [{"measurement": "pattern of reactivity of subject 6", "setting": "[1]; subject 6, rAra h 2 pulsed TCL", "result": "did not include"}, {"measurement": "responders with a proliferative response to the peptide", "setting": "[2]", "result": "3 of the 8"}]}, {"molecule": "RCMCEALQQIMENQSDRLQG (Peanut Ara h 2) [Ara h 2 (100-119), Ara h 2 20-mer peptide, residues 100-119]", "values": [{"measurement": "proliferative response", "setting": "[2]", "result": "inducing proliferative responses"}]}, {"molecule": "RQQWELQGDRRCQSQLERAN (Peanut Ara h 2) [Ara h 2 (19-38), Ara h 2 20-mer peptide, residues 19-38]", "values": [{"measurement": "IL-5/IFN-γ ratio", "setting": "[3]; subject 10, CPE driven TCL", "result": "~7"}, {"measurement": "IL-5 production", "setting": "[3]; subject 10, CPE driven TCL", "result": 540, "unit": "pg/mL"}, {"measurement": "IL-5/IFN-γ ratio", "setting": "[3]; subject 21, CPE driven TCL", "result": "approximately 20"}, {"measurement": "IL-5 production", "setting": "[3]; subject 21, CPE driven TCL", "result": 2054, "unit": "pg/mL"}, {"measurement": "reactivity of subject 10", "setting": "[1]; subject 10, both types of TCL preparation", "result": "reacted"}, {"measurement": "magnitude of response relative to other peptides", "setting": "[1]; subject 10, rAra h 2 pulsed TCL", "result": "less than that generated by stimulation with Ara h 2 (37-56) and Ara h 2 (46-65)"}, {"measurement": "responders with a proliferative response to the peptide", "setting": "[2]", "result": "3 of the 8"}, {"measurement": "subjects demonstrating their greatest response to this peptide", "setting": "[2]; response magnitude ranked for each subject", "result": 3}, {"measurement": "subjects responding to the peptide who also had a proliferative response to Ara h 2", "setting": "[2]", "result": 60, "unit": "%"}]}, {"molecule": "RRCQSQLERANLRPCEQHLM (Peanut Ara h 2) [Ara h 2 (28-47), Ara h 2 20-mer peptide, residues 28-47]", "values": [{"measurement": "proliferative response", "setting": "[2]", "result": "inducing proliferative responses"}, {"measurement": "subjects responding to the peptide who also had a proliferative response to Ara h 2", "setting": "[2]", "result": 60, "unit": "%"}]}, {"molecule": "B1", "values": [{"measurement": "sera reactive with Ara h 2", "setting": "specific IgE; Burks et al, 1992", "result": "6 out of 6"}, {"measurement": "subjects with specific IgE to purified natural Ara h 2", "setting": "specific IgE; de Jong et al. 1998", "result": "approximately 78%"}, {"measurement": "subjects possessing specific IgE to Ara h 2", "setting": "specific IgE; western blotting of crude peanut extract, Clarke et al. 1998", "result": 71, "unit": "%"}, {"measurement": "subjects possessing IgE towards the recombinant form", "setting": "specific IgE; western blotting, Kleber-Janke et al. 1999", "result": 85, "unit": "%"}, {"measurement": "peanut allergic subjects possessing IgE reactive to Ara h 2 doublet", "setting": "serum IgE; 22 peanut allergic subjects", "result": "20 out of the 22"}, {"measurement": "IgE binding to Ara h 2 in non-peanut allergic controls", "setting": "serum IgE; non-peanut allergic controls", "result": "weak and potentially non-specific"}]}]}
